Measurements taken from publication PMC11187126, “Structure and dynamics of the pyroglutamylated RF-amide peptide QRFP receptor GPR103” (Nature Communications, 2024).
Read-outs that look alike come from different tables or passages of the source. No end group written: not given here.

Target: T1, GPR103 Y29N-termA (Homo sapiens, UniProt Q96P65, Y29A)
T1 construct: we used human full-length QRFPR-encoding plasmids; expressed in transfected cells; host or cells: HEK293 cells, pCAGGS vector
T1 sequence (Q96P65 1-431 Y29A): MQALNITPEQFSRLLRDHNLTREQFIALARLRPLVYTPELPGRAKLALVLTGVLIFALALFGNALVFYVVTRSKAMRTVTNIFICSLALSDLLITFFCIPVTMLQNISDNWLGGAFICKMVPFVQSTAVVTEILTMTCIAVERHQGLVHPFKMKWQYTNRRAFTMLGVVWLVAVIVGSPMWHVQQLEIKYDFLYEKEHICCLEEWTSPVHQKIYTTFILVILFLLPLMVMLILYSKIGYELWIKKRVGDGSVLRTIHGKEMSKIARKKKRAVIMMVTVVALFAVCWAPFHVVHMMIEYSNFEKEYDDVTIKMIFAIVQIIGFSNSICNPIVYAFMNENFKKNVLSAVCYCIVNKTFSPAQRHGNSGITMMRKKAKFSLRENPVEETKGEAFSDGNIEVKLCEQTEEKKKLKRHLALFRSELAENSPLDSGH
Experiment: TGFα shedding assay; Exp. level WT (1:20)
Type: cell-based
Method: For the TGFα shedding assay and the flow cytometry analysis, we used human full-length QRFPR-encoding plasmids. Specifically, GPR103 was N-terminally modified with an HA signal sequence followed by a FLAG epitope and then a flexible linker ([…]; the FLAG epitope is underlined) and inserted into the pCAGGS vector. Plasmid encoding GPR103 mutants were generated using Quickchange Site-Directed Mutagensis kit (Agilent).
The TGFα shedding assay was performed as described previously with minor modifications. Plasmid transfection was performed in a 6-well plate with a mixture of 500 ng (per well in a 6-well plate) AP-TGFα-encoding plasmid and 200 ng GPR103-encoding plasmid. After 1-day culture, the transfected cells were harvested by trypsinization, pelleted by centrifugation at 190 × g for 5 min, and washed once with 5 mM HEPES (pH 7.4)-containing Hank’s Balanced Salt Solution (HBSS). After centrifugation, the cells were resuspended in 8 mL of the HEPES-containing HBSS. The cell suspension was seeded in a 96-well culture plate (cell plate) at a volume of 90 μL (per well hereafter) and incubated in a 37 °C incubator with 5% CO2 for 30 min. […] After spinning the cell plates at 190 × g for 2 min, 80 μL of conditioned media was transferred to an empty 96-well plate (conditioned media (CM) plate). Then, 80 μL of AP reaction solution (10 mM p-nitrophenylphosphate (p-NPP), 120 mM Tris-HCl (pH 9.5), 40 mM NaCl, and 10 mM MgCl2) was dispensed into the cell plates and the CM plates. Absorbance at 405 nm of the plates was measured using a microplate reader (SpectraMax 340 PC384, Molecular Devices) before and after 1-h incubation at room temperature. Ligand-induced AP-TGFα release was calculated by subtracting spontaneous AP-TGFα release signal from ligand-induced AP-TGFα release signal. The AP-TGFα release signals were fitted to a four-parameter sigmoidal concentration–response curve, using the Prism 10 software (GraphPad Prism). For each replicate experiment, the pEC50 parameter (negative logarithmic values of EC50 values) of the individual GPR103 mutants were normalized to that of the wild-type GPR103 performed in parallel, and resulting ∆pEC50 values were used to denote ligand response activity of the mutants. […]
Exp. le vel: WT (1:5 0)Exp. le vel: WT (1:5 0)Exp. le vel: WT (1:5 0)Exp. le vel: WT (1:2 0)Exp. le vel: WT (1:2 0)Exp. le vel: WT (1:1 0) […]
L1 4N - t e r mA F2 5N - t e r mA I 2 6N - t e r mA Y 2 9N - t e r mA C 9 82 .5 7A T10 22 .6 1A Exp . l eve l: WT (1 :5)Exp . l evel : >WT (1 :1)Exp. le vel: WT (1:2 0)Exp. le vel: WT (1:2 0)Exp. le vel: WT (1:5 0)Exp . l eve l: WT (1 :1) […]
Exp. le vel: WT (1:1 0)Exp. le vel: WT (1:2 0) C 1 1 83 .2 5AExp. le vel: WT (1:5 0)Exp. le vel: WT (1:5 0)Exp. le vel: WT (1:2 0)Exp . l eve l: WT (1 :5) […]
Exp. le vel: WT (1:5 0)Exp. le vel: WT (1:1 0)Exp. le vel: WT (1:5 0) E203ECL2AExp . l evel : >WT (1 :1)Exp. le vel: WT (1:5 0)Exp. le vel: WT (1:5 0) […]
Exp . l eve l: WT (1 :1) F28Exp. le vel: WT (1:5 0) C 2 8 56 .4 7AExp. le vel: WT (1:2 0) WExp. le vel: WT (1:2 0) F28Exp. le vel: WT (1:5 0)Exp . l evel : >WT (1 :1) […]
Exp. le vel: WT (1:5 0)Exp. le vel: WT (1:5 0) C 3 2 77 .4 8AExp . l eve l: WT (1 :5)Exp . l evel : >WT (1 :1)Exp . l evel : >WT (1 :1) […]
Suppl eme nt ary Figure 1 | Mutational analysis of GPR103. […]
mutants. Data are presented as mean values ± SEM, normally n=3-5; dots), each performed in triplicate. b-d Cell-surface expression (b) and QRFP26-in-duced activation of GPR103 (c, d) were analyzed by the flow cytometry and the TGFα shedding assay, respectively. From the concentration–response curves (a), Emax (c) and ΔpEC50 (d) values relative to the wild type were calculated. Colors in the mutant bars indicate an expression level matching to that of titrated wild type. Statistical analyses were performed using the ordinary one-way ANOVA followed by Dunnett tests with the expression-matched […]

Substance: TSGPLGNLAEELNGYSRKKGGFSFRF-NH2 [QRFP26]
- Emax (Exp. #1): 95.50 % WT
- Emax (Exp. #2): 84.01 % WT
- Emax (Exp. #3): 93.81 % WT
- Emax (mean, read-out: Emax): 91.1%
- EC50 (n = 3): 269 nM
- Emax (n = 3, read-out: Emax): 94 ± 2.9%
